This note sets out measurements from patent publication EP0381959B1, “Cyclohexaneacetamide derivatives” (F. HOFFMANN-LA ROCHE AG, priority 1989, dated 1990).

In the assay the test system is male C57Bl/10 mice. Briefly: Morris water maze task (latency to locate hidden platform). Format: in vivo. The settings on record: Dose-Response (IP), intraperitoneal, dissolved in saline, 30 minutes prior to testing. An excerpt: The test animals were male C57Bl/10 mice, weighing 17-21 grams at the time of testing. Mice were housed in groups of 10 and had ad lib access to food and water. Mice of this strain appear to be deficient in learning the water maze task and are therefore suitable for use in drug evaluation.[Symons, J.P., Davis, R.E., and Marriott J.G. Life Sciences, 1988, 42, 375-383.] The Morris water maze task requires an animal to attend to spatial cues in order to locate the position of a hidden platform submerged underwater. [Morris, B. G. Learning and Motivation , 1981, 12, 239-260, and Symons, J.P., Davis, R.E., and Marriott J.G. Life Sciences, 1988, 42, 375-383.] The maze consisted of a 60 cm x 60 cm x 60 cm transparent plexiglas chamber filled to a depth of 30 cm, leaving 30 cm of wall extended up from the water surface. The water was made opaque by the addition of powdered milk. The water temperature was maintained at 20 °C. Both distal cues (i.e., standard room objects) and proximal cues (that is, 20 cm x 22 cm unique black and white patterns pasted to the center of each of the four walls of the maze) were used. The submerged platform, 8 x 8 cm, 1 cm below the water's surface was positioned near one of the four corners of the maze. […] The time required for each animal to locate the platform on each of the four trials was recorded (latency). […]

Molecules are shown by their SMILES.

For `NC(=O)[C@@H]1CCCN1C(=O)[C@H](Cc1c[nH]cn1)NC(=O)[C@@H]1CCC(=O)N1` [TRH, pGlu-His-ProNH₂], the “Active Dose Range” value was 0.1 to 0.3 mg/kg.
